Assay results taken from US8252283B2, “Method for treating vascular disorders” (Cytotools GmbH, priority 1999, dated 2012).
Entries after “also recorded” stand apart in the source; their conditions may differ.

Legend:
perfused HUVEC = assay: Apoptosis rate of endothelial cells in dynamic (perfusion) culture, DAPI staining; type: cell-based, human; settings: for Effect on apoptosis (in words): perfusion culture
Description: (§1) The culture supernatant is aspirated off of a Petri dish, and the cell lawn is fixed with 1 ml of formaldehyde solution on ice for 15 minutes, washed twice with 2 ml of PBS, treated with 0.5 ml of DAPI solution for 15 minutes, washed with PBS and evaluated under a fluorescence microscope. The UV filter set and a 20× or 40× objective are used. 500-1 000 cells are selected at random, and the cells with apoptotic nuclei are counted.
(§2) After complete confluence is reached, the cells are employed for the test. Firstly, thrombospondin 1 is added in various concentrations (1-600 μg/ml) to fresh medium and compared with the effect of conditioned medium on the spontaneous apoptosis rate of HUVEC. […] The apoptosis rate is determined by staining apoptotic cells with DAPI.

[1] = tested on: human umbilical vein endothelial cells (HUVEC); assay: Apoptosis rate of confluent endothelial cells in static culture, DAPI staining; type: cell-based; settings: for Effect on the apoptosis rate (in words): substance(s) added to fresh medium
Description: HUVEC are cultivated in gelatin-coated culture vessels at 37° C., 5% CO2 with a water vapor-saturated air atmosphere. The culture medium is changed every 2-3 days; at confluence, the cells are passaged with a division rate of from 1:3 to 1:5. HUVEC grow with strict contact inhibition and form monolayer cell lawns with a typical cobblestone morphology. At confluence, the cultures reach cell densities of 4-9×10^4 cells/cm^2. Only HUVEC cultures of passages 1-4 are used for apoptosis investigations.
as §1
The apoptosis index is calculated by the following formula: […]
as §2
The cells are seeded into the appropriate culture vessels (e.g. 24-well plate/0.5 ml per well) and employed for the test after complete confluence is reached. Investigations into the effect of various peptides and proteins (table 2) on the apoptosis rate of endothelial cells are carried out.
The cells are seeded in the appropriate culture vessels (e.g. 24-well plate/0.5 ml per well) and employed for the test after complete confluence is reached. […] The apoptotic cells and the total cell count are determined and the apoptosis index is calculated (percent of apoptotic cells). The data of 3 independent experiments are indicated in table 1, stating the mean and standard deviation.

HUVEC [2] = assay: Induced calcium influx into the cells, intracellular calcium indicator Fluo-3 AM; type: cell-based, human; settings: static culture, measured at addition of substance
Description: Fluo-3 is a calcium indicator which forms a fluorescent complex after binding of Ca^2+. The ester Fluo-3 AM is taken up by the cells through diffusion. The calcium indicator Fluo 3 is produced only after hydrolysis of the ester in the cell. […] The measurement is carried out with normal fluorescein filters. At an excitation wavelength of 488 nm (500 nm), the emission maximum is at 525 nm and increases by a factor of 100 (200) through calcium binding.
Confluent HUVEC cell lawns in 24-well plates are washed three times with serum-free medium, incubated with preheated serum-free medium with Fluo-3 AM under culture conditions for 30 minutes and washed three times, and the plate is measured with a fluorimeter. First the sensitivity of the instrument is adjusted, and then fluorescence values corresponding to the instantaneous calcium level in the cell are recorded every 1-10 seconds. Substances can be added to the cells while the measurement is taking place. […] Assessment of the calcium level is possible with this method.
The influx of calcium into the cells can be employed as early indicator.
The test system can also be carried out with the calcium indicator Fluo-3 AM. […] The cells are employed for the test after complete confluence is reached. […] During the measurement, the substances b, c, e, f, g are added to the cells. […]

HUVEC [3] = assay: Apoptosis rate after cone and plate shear pre-cultivation and transfer to static wells, DAPI staining (Examples 11, 12); type: cell-based, human; settings: for Apoptosis rate (%) with EGTA and with peptides: 0.5 mM EGTA, RGD peptide 250 μg/ml + IAP peptide 400 μg/ml
Description: The cone and plate shear apparatus is first cleaned with a soft cloth and 70% ethanol, the cone is sterilized, and the apparatus is then stabilized at 37° C. in a heating cabinet for at least 30 min. The precultivated cells are washed with culture medium and provided with 0.06 ml/cm^2 fresh culture medium, and the culture dish is rapidly fitted into the cone and plate shear apparatus.
The cone is raised using the coarse adjustment, and the culture dish together with lid is carefully inserted into the holder provided therefor. The lid is taken off and the cone is lowered onto the culture dish and adjusted: the tip of a cone is then a minimal distance from the cell lawn and the cone moves round without abrading. The assembled cone and plate shear apparatus is placed in an incubator at 37° C., 5% (v/v) CO2 with a water vapor-saturated atmosphere for dynamic cultivation of the cells.
as §1
The culture dish is removed and divided into 12 independent culture wells (culture area of each well 0.8 cm^2) by putting in a suitable insert. Half of the culture is cultivated in culture medium with EGTA and the second half is cultivated in culture medium without EGTA. […] The apoptosis rate is determined by staining the apoptotic cells with DAPI.

[4] = static, 48 h, substance(s) in fresh medium, TSP 1 μg/ml, RGD 250 μg/ml, CBD 400 μg/ml

Compound: Thrombospondin 1 [TSP-1]
- Apoptosis rate (%) after 24 h (perfused HUVEC; dynamic culturing conditions, TSP-1 1 μg/ml): <0.1%
- Effect on apoptosis (in words) (perfused HUVEC): no effect on apoptosis
- Effect on apoptosis (in words) (perfused HUVEC; listed as Thrombospondin): no effect on perfused HUVEC
- Apoptosis rate (%) ([1]; static culture, 24 h, substance alone (in fresh medium; TSP-1 1 μg/ml, antiserum 1:20, mAb 1:30)): 3.0 ± 0.4%
- Effect on the apoptosis rate (in words) ([1]; static culture): increase in spontaneous apoptosis
- Effect on the apoptosis rate (in words) ([1]; static culture, listed as thrombospondin): significant increase in the apoptosis rate
- Apoptosis rate (%) after 24 h ([1]; static culturing conditions, TSP-1 1 μg/ml): 3.0 ± 0.4%
- Apoptosis rate (%) [1, 4]: 6.9 ± 1.2%
- Apoptosis rate [%] (with SEM) ([1]; static, 48 hours, fresh medium + TSP-1 1 μg/ml alone): 7.3 ± 0.6%
- Effect on intracellular calcium level (in words) (HUVEC [2]): increase in the intracellular calcium level; also recorded: calcium influx into the cell

Compound: cyclic Arg-Gly-Asp-(D-Phe)-Val peptide [active RGD]
- Effect on the apoptosis rate (in words) ([1]; static culture): no effect on the apoptosis rate
- Apoptosis rate (%) [1, 4]: 1.2 ± 0.5%

Compound: O=C(O)CN(CCOCCOCCN(CC(=O)O)CC(=O)O)CC(=O)O [EGTA]
- Apoptosis rate (%) with EGTA [2.5 mM] (HUVEC [3]; 0 hours): 0.40 ± 0.22%
- Apoptosis rate (%) with EGTA and with peptides (HUVEC [3]; 0 hours): 0.45 ± 0.24%
- Apoptosis rate (%) with EGTA [2.5 mM] (HUVEC [3]; 2 hours): 0.42 ± 0.22%
- Apoptosis rate (%) with EGTA and with peptides (HUVEC [3]; 2 hours): 1.00 ± 0.29%
- Apoptosis rate (%) with EGTA [2.5 mM] (HUVEC [3]; 3 hours): 0.96 ± 0.27%
- Apoptosis rate (%) with EGTA and with peptides (HUVEC [3]; 3 hours): 0.65 ± 0.24%
- Apoptosis rate (%) with EGTA [2.5 mM] (HUVEC [3]; 4 hours): 1.56 ± 0.23%
- Apoptosis rate (%) with EGTA and with peptides (HUVEC [3]; 4 hours): 1.25 ± 0.33%
- Apoptosis rate (%) with EGTA [2.5 mM] (HUVEC [3]; 5 hours): 2.26 ± 0.35%
- Effect on the apoptosis rate (in words) (HUVEC [3]; EGTA in culture medium with the active peptides): significant reduction in the apoptosis rate
- Effect on the apoptosis rate (in words) (HUVEC [3]; culture medium with 2.5 mmol/l EGTA, static after shear apparatus): significant reduction in the apoptosis rate
